Assay results: patent US8314112B2 (Novartis AG, priority 2008, dated 2012)
pIC50: −log10 of the molar value.

The compounds below were run against T1, human ALK5 (kinase domain, ALK5 T204D) (Homo sapiens, UniProt P36897, T204D) (assay: ALK5 kinase assay ([33P] phosphate incorporation into casein)). Details: casein substrate, 1 μM unlabelled ATP.
T1 construct: The kinase domain of human ALK5 (amino acids 200-503); made in house; host or cells: insect cells (baculovirus)
T1 sequence (P36897 200-503 T204D): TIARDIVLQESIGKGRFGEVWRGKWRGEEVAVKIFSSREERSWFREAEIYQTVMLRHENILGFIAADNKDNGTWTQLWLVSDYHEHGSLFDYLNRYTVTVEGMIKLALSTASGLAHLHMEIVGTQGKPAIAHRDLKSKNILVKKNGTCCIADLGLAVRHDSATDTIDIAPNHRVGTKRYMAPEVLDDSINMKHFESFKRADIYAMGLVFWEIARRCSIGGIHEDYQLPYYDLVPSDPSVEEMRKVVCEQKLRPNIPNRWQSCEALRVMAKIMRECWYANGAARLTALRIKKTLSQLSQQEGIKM
Assay type: biochemical
Method in brief: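 His-tagged human ALK5 T204D kinase domain (aa 200-503, constitutively active, baculovirus/insect-cell expressed), 50 ng/well, preincubated 10 min with compound and dephosphorylated casein (200 μg/well) in Tris pH 7.4/MgCl2/MnCl2. Reaction started with 1 μM ATP plus [33P]ATP, 50 min at room temperature, EDTA-stopped; casein-bound 33P counted by scintillation after filter capture.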
`Cc1cccc(-c2nc(-c3cncc(C#CCN4CCN(C)CC4)c3)c3cc[nH]c3n2)n1` [Example 122, 4-{5-[3-(4-methyl-piperazin-1-yl)-prop-1-ynyl]-pyridin-3-yl}-2-(6-methyl-pyridin-2-yl)-7H-pyrrolo[2,3-d]pyrimidine] was tested, and the pIC50 was 7.35. For `Cc1cccc(-c2cc(-c3cncc(-c4cnn(C)c4)c3)c3cc[nH]c3n2)n1` [Example 123, 4-[5-(1-Methyl-1H-pyrazol-4-yl)-pyridin-3-yl]-6-(6-methyl-pyridin-2-yl)-1H-pyrrolo[2,3-b]pyridine], the pIC50 was 8.36. With `Cc1cccc(-c2nc(-c3cncc(-c4ccc(CN(C)C)cn4)c3)c3cc[nH]c3n2)n1` [Example 124, Dimethyl-{5′-[2-(6-methyl-pyridin-2-yl)-7H-pyrrolo[2,3-d]pyrimidin-4-yl]-[2,3′]bipyridinyl-5-ylmethyl}-amine] the pIC50 was 7.96. Compound `Cc1cccc(-c2cc(-c3cncc(-c4ccc(CN(C)C)cn4)c3)c3cc[nH]c3n2)n1` [Example 125, Dimethyl-{5′-[6-(6-methyl-pyridin-2-yl)-1H-pyrrolo[2,3-b]pyridin-4-yl]-[2,3′]-5-ylmethyl}-amine] has a pIC50 of 8.10. With `Cc1cccc(-c2nc(-c3cncc4c3CCCO4)c3cc[nH]c3n2)n1` [Example 126, 5-[2-(6-Methyl-pyridin-2-yl)-7H-pyrrolo[2,3-d]pyrimidin-4-yl]-3,4-dihydro-2H-pyrano[2,3-c]pyridine] the pIC50 was 6.64. `Cc1cccc(-c2cc(-c3cncc(-c4ccc([C@H](C)N)cc4)c3)c3cc[nH]c3n2)n1` [Example 127, (S)-1-(4-{5-[6-(6-Methyl-pyridin-2-yl)-1H-pyrrolo[2,3-b]pyridin-4-yl]-pyridin-3-yl}-phenyl)-ethylamine] showed a pIC50 of 7.77. `Cc1cccc(-c2cc(-c3cncc(-c4ccc([C@@H](C)N)cc4)c3)c3cc[nH]c3n2)n1` [Example 128, (R)-1-(4-{5-[6-(6-Methyl-pyridin-2-yl)-1H-pyrrolo[2,3-b]pyridin-4-yl]-pyridin-3-yl}-phenyl)-ethylamine] was tested, and the pIC50 was 7.89. Compound `Cc1cccc(-c2cc(-c3cncc(C#CCN4CCN(C)CC4)c3)c3cc[nH]c3n2)n1` [Example 129, 4-{5-[3-(4-Methyl-piperazin-1-yl)-prop-1-ynyl]-pyridin-3-yl}-6-(6-methyl-pyridin-2-yl)-1H-pyrrolo[2,3-b]pyridine] has a pIC50 of 7.80. `Cc1cccc(-c2cc(-c3cncc(-c4cccc(CNCC(=O)O)c4)c3)c3cc[nH]c3n2)n1` [Example 130, (3-{5-[6-(6-Methyl-pyridin-2-yl)-1H-pyrrolo[2,3-b]pyridin-4-yl]-pyridin-3-yl}-benzylamino)-acetic acid] gave a pIC50 of 7.96. In the case of `COC(=O)CNCc1cccc(-c2cncc(-c3cc(-c4cccc(C)n4)nc4[nH]ccc34)c2)c1` [Example 131, (3-{5-[6-(6-Methyl-pyridin-2-yl)-1H-pyrrolo[2,3-b]pyridin-4-yl]-pyridin-3-yl}-benzylamino)-acetic acid methyl ester], the pIC50 was 8.00. Compound `Cc1cccc(-c2cc(-c3cncc(-c4cccc(CNCCO)c4)c3)c3cc[nH]c3n2)n1` [Example 132, 2-(3-{5-[6-(6-Methyl-pyridin-2-yl)-1H-pyrrolo[2,3-b]pyridin-4-yl]-pyridin-3-yl}-benzylamino)-ethanol] has a pIC50 of 8.28. For `COC(=O)CNCc1ccc(-c2cncc(-c3cc(-c4cccc(C)n4)nc4[nH]ccc34)c2)cc1` [Example 133, (4-{5-[6-(6-methyl-pyridin-2-yl)-1H-pyrrolo[2,3-b]pyridin-4-yl]-pyridin-3-yl}-benzylamino)-acetic acid methyl ester], the pIC50 was 8.15. Compound `Cc1cccc(-c2cc(-c3cncc(-c4ccc(CN5CCC(F)(F)C5)cc4)c3)c3cc[nH]c3n2)n1` [Example 134, 4-{5-[4-(3,3-Difluoro-pyrrolidin-1-ylmethyl)-phenyl]-pyridin-3-yl}-6-(6-methyl-pyridin-2-yl)-1H-pyrrolo[2,3-b]pyridine] has a pIC50 of 7.41. `Cc1cccc(-c2cc(-c3cncc(-c4ccc(CNCCO)cc4)c3)c3cc[nH]c3n2)n1` [Example 135, 2-(4-{5-[6-(6-Methyl-pyridin-2-yl)-1H-pyrrolo[2,3-b]pyridin-4-yl]-pyridin-3-yl}-benzylamino)-ethanol] showed a pIC50 of 8.48. In the case of `Cc1cccc(-c2cc(-c3cncc(-c4ccc(CNCC(=O)O)cc4)c3)c3cc[nH]c3n2)n1` [Example 136, (4-{5-[6-(6-Methyl-pyridin-2-yl)-1H-pyrrolo[2,3-b]pyridin-4-yl]-pyridin-3-yl}-benzylamino)-acetic acid], the pIC50 was 8.00. Work on `Cc1cccc(-c2cc(-c3cncc(-c4ccc(CN5CCN(C(C)C)CC5)cc4)c3)c3cc[nH]c3n2)n1` [Example 137, 4-{5-[4-(4-Isopropyl-piperazin-1-ylmethyl)-phenyl]-pyridin-3-yl}-6-(6-methyl-pyridin-2-yl)-1H-pyrrolo[2,3-b]pyridine] yielded a pIC50 of 8.05. `Cc1cccc(-c2cc(-c3cncc(-c4ccc(CN5CC(O)C5)cc4)c3)c3cc[nH]c3n2)n1` [Example 138, 1-(4-{5-[6-(6-Methyl-pyridin-2-yl)-1H-pyrrolo[2,3-b]pyridin-4-yl]-pyridin-3-yl}-benzyl)-azetidin-3-ol] was tested, and the pIC50 was 7.96. `Cc1cccc(-c2cc(-c3cncc(-c4ccc(CNCCCO)cc4)c3)c3cc[nH]c3n2)n1` [Example 139, 3-(4-{5-[6-(6-Methyl-pyridin-2-yl)-1H-pyrrolo[2,3-b]pyridin-4-yl]-pyridin-3-yl}-benzylamino)-propan-1-ol] was tested, and the pIC50 was 8.05. Work on `Cc1cccc(-c2cc(-c3cncc(-c4ccc(CNCCC(=O)O)cc4)c3)c3cc[nH]c3n2)n1` [Example 140, 3-(4-{5-[6-(6-Methyl-pyridin-2-yl)-1H-pyrrolo[2,3-b]pyridin-4-yl]-pyridin-3-yl}-benzylamino)-propionic acid] yielded a pIC50 of 8.21. Compound `COC(=O)CN(C)Cc1cccc(-c2cncc(-c3cc(-c4cccc(C)n4)nc4[nH]ccc34)c2)c1` [Example 141, [Methyl-(3-{5-[6-(6-methyl-pyridin-2-yl)-1H-pyrrolo[2,3-b]pyridin-4-yl]-pyridin-3-yl}-benzyl)-amino]-acetic acid methyl ester] has a pIC50 of 7.77. In the case of `Cc1cccc(-c2cc(-c3cncc(-c4cccc(CN(C)CCO)c4)c3)c3cc[nH]c3n2)n1` [Example 142, 2-[Methyl-(3-{5-[6-(6-methyl-pyridin-2-yl)-1H-pyrrolo[2,3-b]pyridin-4-yl]-pyridin-3-yl}-benzyl)-amino]-ethanol], the pIC50 was 8.00. `Cc1cccc(-c2cc(-c3cncc(-c4cccc(CN(C)CC(=O)O)c4)c3)c3cc[nH]c3n2)n1` [Example 143, [Methyl-(3-{5-[6-(6-methyl-pyridin-2-yl)-1H-pyrrolo[2,3-b]pyridin-4-yl]-pyridin-3-yl}-benzyl)-amino]-acetic acid] gave a pIC50 of 7.52. `Cc1cccc(-c2nc(-c3cncc(-c4cccc(CN(C)CCO)c4)c3)c3cc[nH]c3n2)n1` [Example 144, 2-[Methyl-(3-{5-[2-(6-methyl-pyridin-2-yl)-7H-pyrrolo[2,3-d]pyrimidin-4-yl]-pyridin-3-yl}-benzyl)-amino]-ethanol] showed a pIC50 of 7.72. `Cc1cccc(-c2nc(-c3cncc(-c4cccc(CN(C)CC(=O)O)c4)c3)c3cc[nH]c3n2)n1` [Example 145] gave a pIC50 of 7.59. Compound `COC(=O)CNCc1cccc(-c2cncc(-c3nc(-c4cccc(C)n4)nc4[nH]ccc34)c2)c1` [Example 146, (3-{5-[2-(6-Methyl-pyridin-2-yl)-7H-pyrrolo[2,3-d]pyrimidin-4-yl]-pyridin-3-yl}-benzylamino)-acetic acid methyl ester] has a pIC50 of 7.57. `Cc1cccc(-c2nc(-c3cncc(-c4cccc(CNCCO)c4)c3)c3cc[nH]c3n2)n1` [Example 147, 2-(3-{5-[2-(6-Methyl-pyridin-2-yl)-7H-pyrrolo[2,3-d]pyrimidin-4-yl]-pyridin-3-yl}-benzylamino)-ethanol] was tested, and the pIC50 was 8.00. Compound `Cc1cccc(-c2nc(-c3cncc(-c4cccc(CNCC(=O)O)c4)c3)c3cc[nH]c3n2)n1` [Example 148, (3-{5-[2-(6-Methyl-pyridin-2-yl)-7H-pyrrolo[2,3-d]pyrimidin-4-yl]-pyridin-3-yl}-benzylamino)-acetic acid] has a pIC50 of 7.77. `COC(=O)CNCc1ccc(-c2cncc(-c3nc(-c4cccc(C)n4)nc4[nH]ccc34)c2)cc1` [Example 149, (4-{5-[2-(6-Methyl-pyridin-2-yl)-7H-pyrrolo[2,3-d]pyrimidin-4-yl]-pyridin-3-yl}-benzylamino)-acetic acid methyl ester] showed a pIC50 of 8.10. Work on `Cc1cccc(-c2nc(-c3cncc(-c4ccc(CNCC(=O)O)cc4)c3)c3cc[nH]c3n2)n1` [Example 150, (4-{5-[2-(6-Methyl-pyridin-2-yl)-7H-pyrrolo[2,3-d]pyrimidin-4-yl]-pyridin-3-yl}-benzylamino)-acetic acid] yielded a pIC50 of 7.77. In the case of `Cc1cccc(-c2nc(-c3cncc(-c4ccc(CNCCO)cc4)c3)c3cc[nH]c3n2)n1` [Example 151], the pIC50 was 8.24. In the case of `COC(=O)CN(C)Cc1ccc(-c2cncc(-c3cc(-c4cccc(C)n4)nc4[nH]ccc34)c2)cc1` [Example 152, [Methyl-(4-{5-[6-(6-methyl-pyridin-2-yl)-1H-pyrrolo[2,3-b]pyridin-4-yl]-pyridin-3-yl}-benzyl)-amino]-acetic acid methyl ester], the pIC50 was 8.00. `Cc1cccc(-c2cc(-c3cncc(-c4ccc(CN(C)CCO)cc4)c3)c3cc[nH]c3n2)n1` [Example 153, 2-[Methyl-(4-{5-[6-(6-methyl-pyridin-2-yl)-1H-pyrrolo[2,3-b]pyridin-4-yl]-pyridin-3-yl}-benzyl)-amino]-ethanol] showed a pIC50 of 7.96.
